In patent US20120088759A1, “THIAZOLIDIN-4-ONE AND [1,3]-THIAZINAN-4-ONE COMPOUNDS AS OREXIN RECEPTOR ANTAGONISTS” (priority 2009, published 2012):

Columns and labels:
rat [1] = conditions: rat model; cited from earlier work
rat [2] = conditions: cited from earlier work
rat [3] = conditions: cited from earlier work; remark: listed apart in the source
human orexin-2 receptor = target: T1, human orexin-2 receptor (Homo sapiens, UniProt O43614); test: FLIPR intracellular calcium assay, orexin receptor antagonistic activity (OX2); format: cell-based; conditions: CHO cells expressing human orexin-2 receptor; 3 nM orexin-A; normalized to on-plate reference; *n = geometric mean from n values
T1 construct: expressed in transfected cells; host or cells: CHO (Chinese hamster ovary) cells, kept under G418
T1 sequence (O43614 1-444): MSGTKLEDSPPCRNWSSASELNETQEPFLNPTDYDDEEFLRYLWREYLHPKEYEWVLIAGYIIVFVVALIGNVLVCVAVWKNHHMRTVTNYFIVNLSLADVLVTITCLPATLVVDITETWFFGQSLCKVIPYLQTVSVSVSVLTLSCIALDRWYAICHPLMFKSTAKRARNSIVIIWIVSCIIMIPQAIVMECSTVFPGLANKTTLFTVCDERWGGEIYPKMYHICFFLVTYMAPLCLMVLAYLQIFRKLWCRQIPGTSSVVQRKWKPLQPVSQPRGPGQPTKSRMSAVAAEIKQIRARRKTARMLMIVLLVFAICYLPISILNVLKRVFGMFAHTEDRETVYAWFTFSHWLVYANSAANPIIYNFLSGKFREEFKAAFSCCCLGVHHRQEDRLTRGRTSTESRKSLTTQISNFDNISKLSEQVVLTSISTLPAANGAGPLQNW
Protocol: (§1) The orexin receptor antagonistic activity of the compounds of formula (I) is determined in accordance with the following experimental method.
(§2) Chinese hamster ovary (CHO) cells expressing the human orexin-1 receptor and the human orexin-2 receptor, respectively, are grown in culture medium (Ham F-12 with L-Glutamine) containing 300 μg/ml G418, 100 U/ml penicillin, 100 μg/ml streptomycin and 10% heat inactivated fetal calf serum (FCS). The cells are seeded at 20′000 cells/well into 384-well black clear bottom sterile plates (Greiner). The seeded plates are incubated overnight at 37° C. in 5% CO2.
(§3) Human orexin-A as an agonist is prepared as 1 mM stock solution in MeOH:water (1:1), diluted in HBSS containing 0.1% bovine serum albumin (BSA), NaHCO3: 0.375 g/l and 20 mM HEPES for use in the assay at a final concentration of 3 nM.
(§4) Antagonists are prepared as 10 mM stock solution in DMSO, then diluted in 384-well plates using DMSO followed by a transfer of the dilutions into in HBSS containing 0.1% bovine serum albumin (BSA), NaHCO3: 0.375 g/l and 20 mM HEPES. On the day of the assay, 50 μl of staining buffer (HBSS containing 1% FCS, 20 mM HEPES, NaHCO3: 0.375 g/l, 5 mM probenecid (Sigma) and 3 μM of the fluorescent calcium indicator fluo-4 AM (1 mM stock solution in DMSO, containing 10% pluronic) is added to each well. The 384-well cell-plates are incubated for 50 min at 37° C. in 5% CO2 followed by equilibration at rt for 30-120 min before measurement.
(§5) Within the Fluorescent Imaging Plate Reader (FLIPR Tetra, Molecular Devices), antagonists are added to the plate in a volume of 10 μl/well, incubated for 10 min and finally 10 μl/well of agonist is added. Fluorescence is measured for each well at 1 second intervals, and the height of each fluorescence peak is compared to the height of the fluorescence peak induced by 3 nM orexin-A with vehicle in place of antagonist. For each antagonist, the IC50 value (the concentration of compound needed to inhibit 50% of the agonistic response) is determined and normalized using the obtained IC50 value of a on-plate reference compound. Optimized conditions were achieved by adjustment of pipetting speed and cell splitting regime. The calculated IC50 values of the compounds may fluctuate depending on the daily cellular assay performance. Fluctuations of this kind are known to those skilled in the art.

human orexin-1 receptor = target: T2, human orexin-1 receptor (Homo sapiens, UniProt O43613); test: FLIPR intracellular calcium assay, orexin receptor antagonistic activity (OX1); format: cell-based; conditions: CHO cells expressing human orexin-1 receptor; 3 nM orexin-A; normalized to on-plate reference; *n = geometric mean from n values
T2 construct: expressed in transfected cells; host or cells: CHO (Chinese hamster ovary) cells, kept under G418
T2 sequence (O43613 1-425): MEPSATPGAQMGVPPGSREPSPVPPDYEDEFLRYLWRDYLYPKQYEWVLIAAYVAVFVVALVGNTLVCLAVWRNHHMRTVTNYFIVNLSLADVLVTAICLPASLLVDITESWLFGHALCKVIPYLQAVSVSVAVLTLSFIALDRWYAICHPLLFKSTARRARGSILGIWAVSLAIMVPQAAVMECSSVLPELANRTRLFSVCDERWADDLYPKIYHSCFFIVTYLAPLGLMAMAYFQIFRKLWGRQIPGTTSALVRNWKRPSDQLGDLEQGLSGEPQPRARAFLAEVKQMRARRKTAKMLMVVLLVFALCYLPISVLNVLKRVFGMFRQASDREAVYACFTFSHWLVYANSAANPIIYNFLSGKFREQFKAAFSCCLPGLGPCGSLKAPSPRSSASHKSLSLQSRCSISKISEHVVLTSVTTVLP
Protocol: as §1, §2, §3, §4, §5

Row | SMILES | IC50 (human orexin-2 receptor) [nM] | IC50 (human orexin-1 receptor) [nM] | memory function (rat [1]) | activity in a rat model of post-traumatic stress disorder (rat [2]) | alertness, characterized by active wake and locomotion (rat [3]) | time spent in both REM and NREM sleep (rat [3])
1 | CNC(=O)[C@@H](c1ccccc1)N1CCc2cc(OC)c(OC)cc2[C@@H]1CCc1ccc(C(F)(F)F)cc1 [(2R)-2-{(1S)-6,7-dimethoxy-1-[2-(4-trifluoromethyl-phenyl)-ethyl]-3,4-dihydro-1H-isoquinolin-2-yl}-N-methyl-2-phenylacetamide] |  |  | enhance memory function | active | decrease alertness | dose-dependently increase
2 | COc1cccc(OC)c1C1SC(C)C(=O)N1Cc1ccc2ccccc2c1 (stereo not drawn) [Example 14, 2-(2,6-Dimethoxy-phenyl)-5-methyl-3-naphthalen-2-ylmethyl-thiazolidin-4-one] | 44 | 31 |  |  |  | 
3 | CCOc1ccc(CN2C(=O)CSC2c2c(OC)ccc3cccnc23)cc1 (stereo not drawn) [Example 21, 3-(4-Ethoxy-benzyl)-2-(7-methoxy-quinolin-8-yl)-thiazolidin-4-one] | 60 | 1450 |  |  |  | 
4 | CCOc1ccccc1C1SCC(=O)N1Cc1ccc2c(c1)OCCO2 (stereo not drawn) [Example 72, 3-(2,3-Dihydro-benzo[1,4]dioxin-6-ylmethyl)-2-(2-ethoxy-phenyl)-thiazolidin-4-one] | 115 | 778 |  |  |  | 
5 | CCOc1ccccc1CN1C(=O)CSC1c1c(OC)cccc1OC (stereo not drawn) [Example 101, 2-(2,6-Dimethoxy-phenyl)-3-(2-ethoxy-benzyl)-thiazolidin-4-one] | 51 | 488 |  |  |  | 
6 | COc1cccc(OC)c1C1SCC(=O)N1Cc1ccc(Oc2ncccc2C)cc1 (stereo not drawn) [Example 285, 2-(2,6-Dimethoxy-phenyl)-3-[4-(3-methyl-pyridin-2-yloxy)-benzyl]-thiazolidin-4-one] | 135 | 1220 |  |  |  | 

More lines, main results first:

Row | IC50 (human orexin-2 receptor) [nM] | IC50 (human orexin-1 receptor) [nM] | SMILES | memory function (rat [1]) | activity in a rat model of post-traumatic stress disorder (rat [2]) | alertness, characterized by active wake and locomotion (rat [3]) | time spent in both REM and NREM sleep (rat [3])
7 | 14 | 278 | COc1ccc2cccnc2c1C1SCC(=O)N1Cc1ccc(OC(F)(F)F)cc1 (stereo not drawn) [Example 24, 2-(7-Methoxy-quinolin-8-yl)-3-(4-trifluoromethoxy-benzyl)-thiazolidin-4-one] |  |  |  | 
8 | 10 | 323 | COc1cccc(OC)c1C1SCC(=O)N1Cc1ccc(OCC(F)(F)F)cc1 (stereo not drawn) [Example 18, 2-(2,6-Dimethoxy-phenyl)-3-[4-(2,2,2-trifluoro-ethoxy)-benzyl]-thiazolidin-4-one] |  |  |  | 
9 | 16 | 144 | COc1ccc2c(c1C1SCC(=O)N1Cc1ccc(OC(F)(F)F)cc1)OCCO2 (stereo not drawn) [Example 10, 2-(6-Methoxy-2,3-dihydro-benzo[1,4]dioxin-5-yl)-3-(4-trifluoromethoxy-benzyl)-thiazolidin-4-one] |  |  |  | 
10 | 28 | 107 | COc1cc(C)cc(OC)c1C1SCC(=O)N1Cc1ccc(OC(F)(F)F)cc1 (stereo not drawn) [Example 34, 2-(2,6-Dimethoxy-4-methyl-phenyl)-3-(4-trifluoromethoxy-benzyl)-thiazolidin-4-one] |  |  |  | 
11 | 30 | 440 | COc1cccc(OC)c1C1SCC(=O)N1Cc1ccc(SC(F)(F)F)cc1 (stereo not drawn) [Example 139, 2-(2,6-Dimethoxy-phenyl)-3-(4-trifluoromethylsulfanyl-benzyl)thiazolidin-4-one] |  |  |  | 
